Publication PMC8629109 (Journal of medicinal chemistry, 2020)
Like-named read-outs stand apart in the source and are kept apart here. Values belong to the molecule of their own block, whether it stands above or below them.

Tests used:
[1] = Plasma stability in rat serum; type: in vitro ADME; settings: 37 °C
mGluR2 [2] = target: mGluR2 (Rattus norvegicus, UniProt P31421); experiment: PET imaging and blocking studies in rat brain; type: in vivo, Sprague-Dawley rats; settings: pretreatment 4 mg/kg i.v. 10 min before [11C]13, 10–30 min time window
Sequence of mGluR2 (Rattus norvegicus, UniProt P31421) (P31421 19-872): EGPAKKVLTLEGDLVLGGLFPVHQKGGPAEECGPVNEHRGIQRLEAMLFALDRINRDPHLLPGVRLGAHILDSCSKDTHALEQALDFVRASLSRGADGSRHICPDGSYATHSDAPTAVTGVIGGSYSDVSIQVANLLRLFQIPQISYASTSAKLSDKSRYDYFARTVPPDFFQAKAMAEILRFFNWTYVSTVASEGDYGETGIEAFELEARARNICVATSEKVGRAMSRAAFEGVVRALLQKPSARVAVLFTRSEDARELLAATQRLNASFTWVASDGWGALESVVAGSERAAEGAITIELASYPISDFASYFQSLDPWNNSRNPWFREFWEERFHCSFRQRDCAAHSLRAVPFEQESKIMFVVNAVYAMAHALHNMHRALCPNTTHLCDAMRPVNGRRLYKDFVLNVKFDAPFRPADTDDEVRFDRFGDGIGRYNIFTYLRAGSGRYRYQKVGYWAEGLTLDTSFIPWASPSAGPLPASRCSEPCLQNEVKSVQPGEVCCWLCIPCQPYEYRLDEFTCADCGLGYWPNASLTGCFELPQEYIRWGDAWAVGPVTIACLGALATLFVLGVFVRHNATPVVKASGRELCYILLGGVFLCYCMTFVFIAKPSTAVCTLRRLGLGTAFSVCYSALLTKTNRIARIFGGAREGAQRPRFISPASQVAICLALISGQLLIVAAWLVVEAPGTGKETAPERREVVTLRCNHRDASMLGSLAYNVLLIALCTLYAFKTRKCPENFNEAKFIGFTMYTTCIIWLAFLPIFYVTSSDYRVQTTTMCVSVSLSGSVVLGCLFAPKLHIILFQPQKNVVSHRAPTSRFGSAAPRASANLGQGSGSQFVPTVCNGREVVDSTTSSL

mGluR2 [3] = target: T1, mGluR2 (Homo sapiens, UniProt Q14416); experiment: GloSensor cAMP biosensor assay, mGluR2 PAM activity; settings: read-out: EC50, mGluR2 PAM activity; in the presence of EC20 amount of L-glutamate; intracellular cAMP
T1 sequence (Q14416 19-872): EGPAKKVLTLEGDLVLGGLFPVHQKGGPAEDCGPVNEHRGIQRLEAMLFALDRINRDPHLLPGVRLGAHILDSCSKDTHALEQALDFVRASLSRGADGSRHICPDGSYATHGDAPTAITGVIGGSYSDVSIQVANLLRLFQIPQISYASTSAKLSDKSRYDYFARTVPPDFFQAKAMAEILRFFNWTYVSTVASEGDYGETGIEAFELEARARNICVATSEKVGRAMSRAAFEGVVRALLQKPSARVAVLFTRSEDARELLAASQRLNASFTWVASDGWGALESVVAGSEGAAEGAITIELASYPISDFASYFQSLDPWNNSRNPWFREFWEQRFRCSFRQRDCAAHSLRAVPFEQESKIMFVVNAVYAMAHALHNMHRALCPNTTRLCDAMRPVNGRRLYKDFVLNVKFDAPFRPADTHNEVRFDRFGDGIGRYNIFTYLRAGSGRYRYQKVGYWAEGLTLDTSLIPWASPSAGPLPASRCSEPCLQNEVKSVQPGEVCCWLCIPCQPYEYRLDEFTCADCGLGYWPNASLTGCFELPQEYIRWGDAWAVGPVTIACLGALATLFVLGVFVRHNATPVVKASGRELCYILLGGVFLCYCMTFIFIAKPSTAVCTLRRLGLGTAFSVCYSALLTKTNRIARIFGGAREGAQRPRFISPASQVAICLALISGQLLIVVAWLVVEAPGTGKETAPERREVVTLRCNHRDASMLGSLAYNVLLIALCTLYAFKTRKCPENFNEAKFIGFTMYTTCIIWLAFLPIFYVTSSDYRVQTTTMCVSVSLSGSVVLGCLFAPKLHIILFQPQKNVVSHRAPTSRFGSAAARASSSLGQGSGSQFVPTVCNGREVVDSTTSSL

mGluR2 [4] = target: T1, mGluR2; experiment: Competitive binding assay with [3H]JNJ-46281222 in mGluR2 transfected CHO cells
[5] = Rat liver microsomal stability; type: in vitro ADME; settings: Sprague-Dawley, liver microsomes, pH 7.4
recombinant human P-gp = recombinant human P-gp (Homo sapiens, UniProt P08183); experiment: Pgp-Glo assay, P-gp ATPase activity; settings: compared with basal and verapamil activities; test compound 200 μM
Sequence of recombinant human P-gp (P08183 whole entry): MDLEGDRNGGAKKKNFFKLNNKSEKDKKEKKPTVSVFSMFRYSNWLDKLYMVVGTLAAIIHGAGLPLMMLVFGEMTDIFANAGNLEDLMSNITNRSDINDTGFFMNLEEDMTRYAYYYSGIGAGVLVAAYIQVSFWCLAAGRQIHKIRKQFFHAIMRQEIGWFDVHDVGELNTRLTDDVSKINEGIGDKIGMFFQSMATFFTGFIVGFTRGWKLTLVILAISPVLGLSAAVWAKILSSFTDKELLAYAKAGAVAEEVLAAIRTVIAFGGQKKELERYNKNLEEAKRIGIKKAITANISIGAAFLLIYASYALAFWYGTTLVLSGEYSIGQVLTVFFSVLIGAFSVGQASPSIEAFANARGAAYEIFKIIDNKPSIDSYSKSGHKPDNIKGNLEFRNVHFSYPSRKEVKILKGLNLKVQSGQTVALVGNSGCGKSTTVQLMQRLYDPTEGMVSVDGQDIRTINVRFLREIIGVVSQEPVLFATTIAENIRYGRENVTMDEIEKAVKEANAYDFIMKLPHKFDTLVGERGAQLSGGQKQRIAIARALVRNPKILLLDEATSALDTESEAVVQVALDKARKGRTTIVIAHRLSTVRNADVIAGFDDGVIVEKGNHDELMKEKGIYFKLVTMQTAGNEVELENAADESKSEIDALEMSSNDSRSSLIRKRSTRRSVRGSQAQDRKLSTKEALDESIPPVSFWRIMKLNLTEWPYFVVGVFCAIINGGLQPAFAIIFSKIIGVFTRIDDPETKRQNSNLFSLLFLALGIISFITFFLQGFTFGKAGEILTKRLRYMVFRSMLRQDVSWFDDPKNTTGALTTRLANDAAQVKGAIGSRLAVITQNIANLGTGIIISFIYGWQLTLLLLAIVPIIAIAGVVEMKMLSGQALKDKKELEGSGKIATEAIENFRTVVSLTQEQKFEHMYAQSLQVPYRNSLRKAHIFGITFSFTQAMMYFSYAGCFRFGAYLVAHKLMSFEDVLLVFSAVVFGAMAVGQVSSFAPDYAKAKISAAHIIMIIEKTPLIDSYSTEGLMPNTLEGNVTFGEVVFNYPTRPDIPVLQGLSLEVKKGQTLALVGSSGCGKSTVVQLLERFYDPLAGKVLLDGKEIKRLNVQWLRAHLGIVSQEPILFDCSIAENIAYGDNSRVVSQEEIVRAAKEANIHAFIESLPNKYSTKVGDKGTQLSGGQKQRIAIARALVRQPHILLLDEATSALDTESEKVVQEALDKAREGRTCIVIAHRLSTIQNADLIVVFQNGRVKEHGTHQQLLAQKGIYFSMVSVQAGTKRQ

[6] = Solution stability in aqueous buffers; type: physicochemical
[7] = system: other mGluR subtypes (mGluR1, mGluR3, mGluR4, mGluR5, mGluR6, mGluR8); experiment: Selectivity among mGluR subtypes; settings: versus mGluR2
[8] = PAMPA high / low permeability standard, value as stated, ref not given; cited from earlier work

The plasma stability: the intact ± SEM at 120 min [1]: 43.2 ± 0.8%
SMILES: COc1ccc([C@@H]2Sc3ccccc3N(CCN(C)C)C(=O)[C@@H]2OC(C)=O)cc1 [Diltiazem, reference compound]

decrease of [11C]13 uptake in different brain areas (mGluR2 [2]): 28–37%
SMILES: Fc1ccc(N2CCN(Cc3ccn4c(CC5CC5)nnc4c3C(F)(F)F)CC2)c(F)c1 [Compound 17, 3-(Cyclopropylmethyl)-7-((4-(2,4-difluorophenyl)piperazin-1-yl)methyl)-8-(trifluoromethyl)[1,2,4]triazolo[4,3-a]pyridine, reference compound]

EC50 (mGluR2 [3]): 7.8 µM
IC50 (mGluR2 [4]; read-out: IC50 ± SEM, mGluR2 transfected CHO cells, 10 nM [3H]JNJ-46281222): 10.5 ± 7.9 nM
SMILES: COc1cc(C(F)(F)F)ccc1OC[C@@H]1[C@H]2CN(Cc3nc4ncccc4n3C)C[C@@H]12 [Compound 15, 2-(((1R,5S,6R)-6-((2-methoxy-4-(trifluoromethyl)phenoxy)methyl)-3-azabicyclo[3.1.0]hexan-3-yl)methyl)-1-methyl-1H-imidazo[4,5-b]pyridine]

The plasma stability: the intact ± SEM at 120 min [1]: 96.6 ± 2.1%
enhancement of radioactivity uptake in the different brain areas (mGluR2 [2]): 33–49%
half-life at 3 μM [5]: 74.5 min
P-gp ATPase activity (recombinant human P-gp): moderate
P-gp substrate assessment (recombinant human P-gp): not a P-gp substrate
The solution stability: the intact ± SEM at 120 min ([6]; pH = 5.0, 37 °C): 95.3 ± 0.3%
The solution stability: the intact ± SEM at 120 min ([6]; pH = 7.4, 37 °C): 94.5 ± 0.4%
The solution stability: the intact ± SEM at 120 min ([6]; pH = 9.4, 37 °C): 96.1 ± 0.7%
IC50 (mGluR2 [4]): 7.6 ± 0.9 nM
SMILES: COc1cc(C(F)(F)F)ccc1C1CCN(Cc2nc3ncccc3n2C)CC1 [Compound 13, 2-((4-(2-Methoxy-4-(trifluoromethyl)phenyl)piperidin-1-yl)methyl)-1-methyl-1H-imidazo[4,5-b]pyridine]
selectivity against other mGluR subtypes [7]: > 100 fold

SMILES: Cn1c(=O)c2[nH]cnc2n(C)c1=O [theophylline]
Pe of quality control standard [8]: 1.2e-07 cm/s

The plasma stability: the intact ± SEM at 120 min [1]: 89.2 ± 0.6%
half-life at 3 μM [5]: 73.7 min
microsomal CLint at 3 μM [5]: 18.1 µL/min/mg
IC50 (mGluR2 [4]): 10.5 ± 0.5 nM
SMILES: COc1cc(C(F)(F)F)ccc1C1CCN(Cc2nc3nccc4c3n2CCC4)CC1 [Compound 14, 2-((4-(2-Methoxy-4-(trifluoromethyl)phenyl)piperidin-1-yl)methyl)-5,6-dihydro-4H-imidazo [4,5,1-ij][1,7]naphthyridine]

half-life at 3 μM [5]: 4.2 min
microsomal CLint at 3 μM [5]: 317 µL/min/mg
SMILES: COc1cc(NC(=O)c2ccccn2)ccc1Cl [ML128, reference compound]
